In patent publication US20110158919A1, “AROMA COMPOSITION COMPRISING O-COUMARIC ACID TO REDUCE OR SUPPRESS UNDESIRABLE TASTE IMPRESSIONS OF SWEETENERS” (SYMRISE AG, priority 2009, published 2011):
Counter-ions that a name gives are not always drawn.

Columns and labels:
[1] = Solubility of homoeriodictyol salts; type: physicochemical; conditions: in words
[2] = Stability test for OCA in a carbonated soft drink; type: physicochemical; conditions: 5000 Lux at 37° C. for 9 days
Experimental: Test 2: Stability Test for OCA in a Carbonated Soft Drink A carbonated soft drink was prepared consisting of water, 10 ppm trans-o-coumaric acid, 350 ppm Rebaudioside A, 250 ppm sodium benzoate, 150 ppm potassium sorbate, 0.1 wt.-% of lemon/lime extract flavour and 0.15 wt.-% sodium citrate/citric acid. The latter was added to obtain a pH of 3.0±0.2. Said mixture was carbonated with 2.7 volumes of carbon dioxide. This PET-bottled drink was stressed with 5000 Lux at 37° C. for 9 days, thereby simulating a storage time (shelf life) of about 9 months at 20° C. At the end of the test the soft drink still contained 8 ppm of OCA, corresponding to an OCA-stability of 80% after a storage time of about 9 months.

solubility compared with pure homoeriodictyol sodium salt [1]	OCA content of the soft drink at the end of the test ([2]; 10 ppm at start, PET-bottled carbonated soft drink, pH 3.0±0.2)	OCA-stability ([2]; simulating a storage time of about 9 months at 20° C.)	SMILES
better solubility	–	–	COc1cc([C@@H]2CC(=O)c3c(O)cc(O)cc3O2)ccc1O [homoeriodictyol potassium salt]
–	8 ppm	80%	O=C(O)/C=C/c1ccccc1O [OCA, (E)-3-(2-hydroxyphenyl)-2-propenoic acid]
